In ChEMBL document CHEMBL1201862, “PubChem BioAssay data set” (2004):
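Tested at 5 concentrations; 48 h exposure; 96-well plates; endpoints linearly interpolated, else capped at highest concentration. GI50 = concentration required for 50% inhibition of growth.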 Active and inactive are the calls of the source. Rule as the data show it: active = GI50 up to about 1.1 µM and inactive = higher.

Key:
Assay in all cases: inhibition of tumour cell growth, NCI panel, 48 h
A498 = system: A498
CCRF-CEM = system: CCRF-CEM
HCC 2998 = system: HCC 2998
HOP-62 = system: HOP-62
K562 = system: K562
KM12 = system: KM12
LOX IMVI = system: LOX IMVI
MDA-MB-231 = system: MDA-MB-231
MDA-N = system: MDA-N
MOLT-4 = system: MOLT-4
NCI/ADR-RES = system: NCI/ADR-RES
OVCAR-8 = system: OVCAR-8
PC-3 = system: PC-3
RPMI-8226 = system: RPMI-8226
RXF 393 = system: RXF 393
SF-268 = system: SF-268
SK-OV-3 = system: SK-OV-3
SN12C = system: SN12C
SNB-75 = system: SNB-75
UACC-257 = system: UACC-257

Row | Structure (SMILES) | GI50 (A498) | GI50 (CCRF-CEM) | GI50 (HCC 2998) | GI50 (HOP-62) | GI50 (K562) | GI50 (KM12) | GI50 (LOX IMVI) | GI50 (MDA-MB-231) | GI50 (MDA-N) | GI50 (MOLT-4) | GI50 (NCI/ADR-RES) | GI50 (OVCAR-8) | GI50 (PC-3) | GI50 (RPMI-8226) | GI50 (RXF 393) | GI50 (SF-268) | GI50 (SK-OV-3) | GI50 (SN12C) | GI50 (SNB-75) | GI50 (UACC-257)
1 | CCCCC1CCCCCCc2[nH]c(/C=C3\N=C(c4ccc[nH]4)C=C3OC)cc21 (stereo not given) | 0.515 µM (active) | < 0.01 µM (active) | < 0.01 µM (active) | 0.0181 µM (active) | < 0.01 µM (active) | < 0.01 µM (active) | < 0.01 µM (active) | < 0.024 µM (active) | < 0.0139 µM (active) | < 0.01 µM (active) | < 0.0169 µM (active) | < 0.0223 µM (active) | < 0.0119 µM (active) | < 0.01 µM (active) | 0.078 µM (active) | 0.0676 µM (active) | 0.326 µM (active) | < 0.0185 µM (active) | < 0.0306 µM (active) | 0.13 µM (active)
2 | COc1cc(C2c3cc4c(cc3OC(Nc3ccccc3)C2C)OCO4)cc(OC)c1OC (stereo not given) | 0.324 µM (active) | 0.315 µM (active) | 1.08 µM (active) | 0.366 µM (active) | 0.282 µM (active) | 0.48 µM (active) | 0.593 µM (active) | 2.8 µM (inactive) | 0.161 µM (active) | 0.416 µM (active) | 0.564 µM (active) | 1.44 µM (inactive) | 0.468 µM (active) | 0.608 µM (active) | 0.565 µM (active) | 1.91 µM (inactive) | 1.08 µM (active) | 0.659 µM (active) | 3.08 µM (inactive) | 2.82 µM (inactive)
3 | CC(NNC(=O)c1ccncc1)c1ccccc1 (stereo not given) | > 100 µM (inactive) | > 100 µM (inactive) | > 100 µM (inactive) | > 100 µM (inactive) | > 100 µM (inactive) | > 100 µM (inactive) | > 100 µM (inactive) | > 100 µM (inactive) | > 100 µM (inactive) | > 100 µM (inactive) | > 100 µM (inactive) | > 100 µM (inactive) | > 100 µM (inactive) | > 100 µM (inactive) | > 100 µM (inactive) | > 100 µM (inactive) | > 100 µM (inactive) | > 100 µM (inactive) | > 100 µM (inactive) | > 100 µM (inactive)
4 | COc1cccc(/C=N/n2c(Cc3ccccc3)n[nH]c2=O)c1 | > 100 µM (inactive) | > 100 µM (inactive) | > 100 µM (inactive) | 42.9 µM (inactive) | > 100 µM (inactive) | > 76.2 µM (inactive) | 48.9 µM (inactive) | > 100 µM (inactive) | > 100 µM (inactive) | > 100 µM (inactive) | > 31.9 µM (inactive) | 69 µM (inactive) | > 100 µM (inactive) | > 100 µM (inactive) | 11.2 µM (inactive) | 43 µM (inactive) | > 100 µM (inactive) | > 19.7 µM (inactive) | 29.4 µM (inactive) | > 100 µM (inactive)
5 | CC12NC(=C(C#N)C#N)C(C#N)=C3NC(N)=C(C#N)C(=C31)Oc1ccccc12 (stereo not given) | > 30.9 µM (inactive) | > 29 µM (inactive) | 27.4 µM (inactive) | 5.04 µM (inactive) | > 43.2 µM (inactive) | 3.77 µM (inactive) | 5.83 µM (inactive) | > 30.1 µM (inactive) | 14.6 µM (inactive) | 15.2 µM (inactive) | > 100 µM (inactive) | 10.9 µM (inactive) | 30.1 µM (inactive) | > 32.7 µM (inactive) | 2.53 µM (inactive) | 10.4 µM (inactive) | 75 µM (inactive) | > 30.7 µM (inactive) | > 57.1 µM (inactive) | > 100 µM (inactive)
6 | COc1cccc(C2c3cc4c(cc3OC(NNC(N)=O)C2C)OCO4)c1O (stereo not given) | 0.83 µM (active) | 0.929 µM (active) | 1.8 µM (inactive) | 1.35 µM (inactive) | 0.516 µM (active) | 0.731 µM (active) | 0.933 µM (active) | 3.94 µM (inactive) | 0.213 µM (active) | 1.42 µM (inactive) | 3.36 µM (inactive) | 2.46 µM (inactive) | 1.15 µM (inactive) | 2.32 µM (inactive) | 0.766 µM (active) | 3.37 µM (inactive) | 5.94 µM (inactive) | 2.65 µM (inactive) | 4.33 µM (inactive) | 3.42 µM (inactive)
7 | CCCCCCOc1ccc(C(=O)N(C)O)cc1 | 26.5 µM (inactive) | 1.85 µM (inactive) | 17.7 µM (inactive) | 11 µM (inactive) | 8.83 µM (inactive) | 24 µM (inactive) | 7.52 µM (inactive) | 41.9 µM (inactive) | 27.6 µM (inactive) | 4.97 µM (inactive) | 10.1 µM (inactive) | 11.7 µM (inactive) | 12.1 µM (inactive) | 7.55 µM (inactive) | 13.1 µM (inactive) | 11.5 µM (inactive) | 18.8 µM (inactive) | 11.9 µM (inactive) | 27.3 µM (inactive) | 36.6 µM (inactive)
8 | CC(C)OP(=O)(OC(C)C)C(C(C)C)N(C)/C(N)=N/C#N (stereo not given) | > 100 µM (inactive) | > 100 µM (inactive) | > 100 µM (inactive) | > 100 µM (inactive) | > 100 µM (inactive) | > 100 µM (inactive) | > 100 µM (inactive) | > 100 µM (inactive) | > 100 µM (inactive) | > 100 µM (inactive) | > 100 µM (inactive) | > 100 µM (inactive) | > 100 µM (inactive) | > 100 µM (inactive) | > 100 µM (inactive) | > 100 µM (inactive) | > 100 µM (inactive) | > 100 µM (inactive) | > 100 µM (inactive) | > 100 µM (inactive)
9 | CC(=O)Nc1ccc(NS(=O)(=O)c2ccc3nc(C)n(NS(=O)(=O)c4ccc(NC(C)=O)cc4)c(=O)c3c2)cc1 | > 100 µM (inactive) | > 100 µM (inactive) | > 100 µM (inactive) | > 100 µM (inactive) | > 100 µM (inactive) | > 100 µM (inactive) | > 100 µM (inactive) | > 100 µM (inactive) | > 100 µM (inactive) | > 100 µM (inactive) | > 100 µM (inactive) | > 100 µM (inactive) | > 100 µM (inactive) | > 100 µM (inactive) | > 100 µM (inactive) | > 100 µM (inactive) | > 100 µM (inactive) | > 100 µM (inactive) | > 100 µM (inactive) | > 100 µM (inactive)
10 | C=C1C(=O)OC2C1C(OC(=O)/C(C)=C/C)CC(O)(CCl)C1C(OC(C)=O)C=C(C)C21O (stereo not given) | 21.8 µM (inactive) | 2.79 µM (inactive) | 16.3 µM (inactive) | 34.8 µM (inactive) | 7.8 µM (inactive) | 19.2 µM (inactive) | 6.49 µM (inactive) | 20.1 µM (inactive) | 16.8 µM (inactive) | 3.69 µM (inactive) | 16.3 µM (inactive) | 8.45 µM (inactive) | 16.1 µM (inactive) | 7.01 µM (inactive) | 11.2 µM (inactive) | 16 µM (inactive) | 37 µM (inactive) | 16.2 µM (inactive) | 21.8 µM (inactive) | 16.5 µM (inactive)
11 | COc1cc2c(cc1OC)C/C(=N\O)c1cc(OC)c(OC)cc1/C=C\2 | 21.2 µM (inactive) | 13.1 µM (inactive) | 2.95 µM (inactive) | 2.82 µM (inactive) | 4.86 µM (inactive) | 5.2 µM (inactive) | 6.4 µM (inactive) | 5.87 µM (inactive) | 1.42 µM (inactive) | 6.41 µM (inactive) | 5.55 µM (inactive) | 10.4 µM (inactive) | 10.2 µM (inactive) | 3.82 µM (inactive) | 5.25 µM (inactive) | 6.24 µM (inactive) | 13.1 µM (inactive) | 10.4 µM (inactive) | 5.31 µM (inactive) | 10.4 µM (inactive)
